Marks after values point to notes of the source that are not given here. Where no end group is shown, it is not given here.
Tests used:
[1] = Zinc-chelating ability assay (PAR colorimetric method); type: binding; conditions: sample in 0.1 mol/L HEPES-KOH buffer, DTT 8 mmol/L, ZnSO4 250 μmol/L, 37 °C 10 min, absorbance at 500 nm, n ≥ 3
Experimental: Zinc-chelating ability was determined using the PAR colorimetric method. […] The mixed solution was stirred (180 r/min) at 37 °C for 10 min, and then 250 μL PAR (0.2 mmol/L, pH 7.5) was added. After incubation at 37 °C for 3 min, the absorbance at 500 nm was read. […] Zinc-chelating capacity was calculated as follows:(1) Zinc chelating ability mg/g=Cc−Cs× 65.38×10^−3×V /M where, Cc (μmol/L) is the zinc concentration in the reaction solution without samples; Cs is the zinc concentration in reaction solution after the chelating reaction (μmol/L); V is the volume of the reaction solution; M is the mass of the samples (g); and 65.38 is the mol mass of zinc (g/mol).

Caco-2 cells = assay: Cell viability of Caco-2 cells (MTT method); type: cell-based
Experimental: In addition, effects of ZnSO4/zinc gluconate and peptide-zinc chelate on cell viability were measured using the MTT method [38].

[2] = Thermal stability of zinc solubility (boiling water); conditions: chelate 1 mg/mL in ultrapure water, zinc sulphate and zinc gluconate 100 μg/mL; boiling water 10, 20, 40, 60 min; zinc in supernatant / total zinc; PAR method; n ≥ 3; Figure 7
Experimental: SAEAH peptide-zinc chelate solution (1 mg/mL, dispersed in ultrapure water) was incubated in boiling water for 10, 20, 40 and 60 min [37]. After centrifugation at 6000× g for 15 min, the supernatant was collected for zinc content determination.

Row | Compound | Zinc chelating capacity [1] | Cytotoxicity toward Caco-2 cells (Caco-2 cells) | Zinc solubility stability against incubation at 100 °C (result in words) [2]
1 | O=C(O)CN(CCN(CC(=O)O)CC(=O)O)CC(=O)O [EDTA] | 57.17 ± 2.63 ^d mg/g |  | 
2 | VDLVAEVPRGL [peptide identified in sweet almond expeller amandin hydrolysates] | 4.33 ± 0.33 ^e mg/g |  | 
3 | O=C([O-])[C@H](O)[C@@H](O)[C@H](O)[C@H](O)CO.O=C([O-])[C@H](O)[C@@H](O)[C@H](O)[C@H](O)CO.[Zn+2] [zinc gluconate] |  | no significant (p > 0.05) cytotoxicity | not reduced significantly
